Eight molecules from PMC6433232, “Targeting mitochondria in cancer therapy could provide a basis for the selective anti-cancer activity” (PLoS ONE, 2019) can be followed below.

Where two headings read alike, the source gives them in different places.

In series [1] the test system is pancreatic cancer MIA PaCa-2 cells. In words: cells. The following applies: for EC50 / CC50: Homo sapiens; for EC50: MIA PaCa-2, read-out: EC50, μM MIA PaCa-2; for CC50: MIA PaCa-2, read-out: LC50 MIA PaCa-2. As for the experimental part:
Fig 1 A, Structure of NSC130362. B, Dose response curve of NSC130362 in MIA PaCa-2 cells. Cells were pre-incubated with NSC130362 for 2 h followed by addition of ATO (5 μM) and incubation for an additional 24 h. At the end of the treatment, the ratio of dead cells was determined by a CellTiterGlo reagent.

Series [2] relates to breast carcinoma HCC1187 cells. Nature of the series: cells. The format is cell-based. Particulars: for CC50: Homo sapiens, HCC1187, compound alone, unit not given in Table 1, read-out: LC50 HCC1187. An excerpt:
For further analyses, we used compounds that have the selective cytotoxicity index either above 20 (non-toxic compounds) or below 1 (toxic compounds) with the aim to identify targets that are responsible for the selective activity of the identified compounds toward cancer cells. To confirm that the effects of the selected compounds are not only specific to MIA PaCa-2 cells, we evaluated their cytotoxic activities on breast carcinoma HCC1187 cells (Table 1). […] For easy comparison, the data with MIA PaCa-2 cells were also included in Table 1. […] We also noticed that, again with a few exceptions, HCC1187 cells are more resistant to the non-toxic compounds in the presence of ATO as compared to MIA PaCa-2 cells. In contrast, HCC1187 cells are more sensitive to all toxic compounds in the presence of ATO as compared to MIA PaCa-2 cells. The high sensitivity of HCC1187 cells to toxic compounds contributed to the increased selective cytotoxicity index.

The next series deals with MIA PaCa-2 cells. In words: Hydrogen peroxide cell-based assay (ROS induction), MIA PaCa-2 cells. Particulars: Homo sapiens, hydrogen peroxide level relative to DMSO-treated cells (100%), read-out: ROS increase, % MIA PaCa-2. As for the experimental part:
(§1) Cells were incubated for 2 h with either compounds (30 μM) or DMSO in a 96-well plate. After the treatment, 80 μl of cell culture medium was collected and the level of hydrogen peroxide was determined using a Hydrogen Peroxide Cell-Based Assay kit (Cayman).
(§2) Cells were incubated with the compounds for 4 h and the level of ROS induction was measured by a hydrogen peroxide cell-based assay kit. Compounds were assayed at a fixed concentration of 30 μM and the measured level of hydrogen peroxide was expressed as percentage in relation to DMSO-treated cells (100%). […] This distinction was more evident for compounds with the highest selective cytotoxicity index. […] We conclude that the selective induction of ROS in cancer cells is required but not sufficient factor for the selective anti-tumor activity.

A further series concerns hepatocytes. Nature of the series: Hydrogen peroxide cell-based assay (ROS induction), hepatocytes. Also noted: species or system Human. Particulars: 30 μM; hydrogen peroxide level relative to DMSO-treated cells (100%). How it is done:
as §1, §2

The target of series [3] is T1, human GSR enzyme (recombinant GSR) (Homo sapiens, UniProt P00390).
T1 construct: made in house; host or cells: E. coli BL21(DE3)
T1 sequence (P00390 44-522): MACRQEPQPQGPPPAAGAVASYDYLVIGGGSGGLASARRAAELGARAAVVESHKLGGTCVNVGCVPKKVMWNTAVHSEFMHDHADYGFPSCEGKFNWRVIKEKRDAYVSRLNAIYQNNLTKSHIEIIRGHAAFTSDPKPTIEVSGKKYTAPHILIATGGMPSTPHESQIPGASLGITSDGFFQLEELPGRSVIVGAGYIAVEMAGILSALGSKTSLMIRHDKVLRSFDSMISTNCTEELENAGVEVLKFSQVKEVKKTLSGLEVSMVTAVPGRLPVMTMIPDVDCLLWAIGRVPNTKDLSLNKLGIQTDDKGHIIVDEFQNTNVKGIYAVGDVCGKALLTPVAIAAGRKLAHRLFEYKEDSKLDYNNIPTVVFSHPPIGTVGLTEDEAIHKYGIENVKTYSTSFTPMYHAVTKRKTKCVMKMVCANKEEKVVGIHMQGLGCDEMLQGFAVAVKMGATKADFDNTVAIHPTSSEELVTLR
In words: Glutathione reductase (GSR) activity assay. The format is biochemical. Particulars: for remaining activity at 30 µM: 2 h at 25°C, read-out: GSR, enzyme residual activity as compared to DMSO-treated sample. As for the experimental part: Recombinant GSR (0.5 u/well) in a 96-well plate was incubated in the GSR assay buffer (50 mM potassium phosphate buffer, pH 7.5 supplemented with 1 mM EDTA), 100 μl with and without compound (30 μM) for 2 h at 25°C. At the end of incubation, 100 μl of solution containing NADPH (0.087 mM), oxidized glutathione (GSSG) (0.95 mM) and 1 μl of the reagent that detects ratio of GSSG to reduced glutathione (GSH) (Abcam) were added and the mixture was incubated for an additional 1 h at 25°C. GSR activity was measured by using 490-nm excitation and monitoring fluorescence at 520 nm with a fluorescence plate reader. One unit of GSR activity was defined as the amount of enzyme required to produce 1 μM of GSH in a total reaction volume of 200 μl in 1 minute in the GSR assay buffer containing NADPH (0.087 mM), GSSG (0.95 mM) and 1 μl of GSH/GSSG ratio detection reagent (Abcam).
Next, we evaluated the inhibitory activity of the selected compounds against human GSR enzyme using recombinant GSR and Abcam GSH/GSSG ratio detection reagent (Table 1). Briefly, GSR activity was measured by following oxidized glutathione (GSSG) reduction in the presence of NADPH and expressed as percentage of residual activity with respect to DMSO-treated enzyme. The residual activity of GSR for both the non-toxic and toxic compounds was quite heterogeneous, ranging from 100% (compounds 38) to 3% (compound 32). […] We thus conclude that GSR inhibitory activity alone cannot be used to predict the selective cytotoxicity index.

For series [4], the system named is human primary hepatocytes. Nature of the series: cells. Particulars: Hepatocyte.
From the text: (§3) We selected hepatocytes as normal cells because hepatocytes are mediate toxicity to multiple drugs and are used as a standard to assess toxicity of drugs in vitro [28]. […] For comparison with the standard of care, doxorubicin was also included in this analysis.
A further series can be described thus: in vitro. Particulars: human, primary hepatocytes.
The subject of series [5] is Complex I (bovine heart mitochondria). Nature of the series: MitoCheck Complex I activity assay. Particulars: 30 μM; for Mito Check I, enzyme residual activity as compared to DMSO-treated sample: bovine heart mitochondria, NADH oxidation.
Method: MitoCheck Complex I activity was determined as described in the manual of the manufacturer’s manual (Cayman). Briefly, compounds (30 μM) or DMSO were mixed with the Complex I activity assay buffer that contained bovine heart mitochondria reagent, NADH, and ubiquinone in the presence of KCN to inhibit complex IV activity. The level of Complex I activity was monitored in a kinetic assay of NADH oxidation by measuring a decrease in absorbance at 340 nm. The residual Complex I activity was calculated by dividing the rate of compound wells by the rate of DMSO wells for the linear portion of the curve.
To test possible effects of compounds on ETC, we analyzed the Complex I-mediated NADH oxidation using a MitoCheck Complex I Activity Assay Kit. The level of NADH oxidation was measured by a decrease in absorbance at 340 nm and expressed as percentage of residual activity in relation to DMSO-treated mitochondria (Table 1). […] Complex I activity was estimated by the rate of NADH oxidation which was also affected by NADH/NADPH-dehydrogenase-mediated redox cycling.

From the text for in vitro: as §3

`O=C1C(Cl)=C(NCCO)C(=O)c2ccccc21` [compound 17]: the 50% effective concentration (EC50) (usually the midpoint of the concentration-response curve) in series [1] was determined as 9.8 µM; in series [4] (read-out: EC50, μM Hepatocytes), 83 µM. The CC50 in series [1] was 9.8 µM; in series [2] it was 19.2 µM; in “in vitro”, 83 µM. Moreover, in series [1] (in the presence of ATO (5 μM), 24 h), the “dose-response in MIA PaCa-2 cells” value is “induced a dose-response over a hundred-fold concentration range”. Besides, the “Selective cytotoxicity index HCC 1187 ATO” value in series [2] (human) is listed as 46.7. Also, in the series on MIA PaCa-2 cells, the activity at 30 µM was 295%. The “ROS increase, % Hepatocytes” value in the series on hepatocytes came to 132%. For the same molecule, in series [3], the remaining activity at 30 µM came to 65%. For the same molecule, the “Mito Check I, enzyme residual activity as compared to DMSO-treated sample” value in series [5] came out at 38%.
For `COCCNC1=C(Cl)C(=O)c2ccccc2C1=O` [compound 21], the EC50 in series [1] amounted to 13.8 µM; in series [4] (read-out: EC50, μM Hepatocytes), 60.4 µM. In addition, the values for the CC50 (in series [1]; in series [2]; in “in vitro”) were 13.8 µM, 5.2 µM and 60.4 µM, respectively. The activity at 30 µM in the series on MIA PaCa-2 cells is 254%. In addition, the “ROS increase, % Hepatocytes” value with hepatocytes worked out at 154%. Moreover, in series [3], the remaining activity at 30 µM was determined as 65%. In addition, the “Mito Check I, enzyme residual activity as compared to DMSO-treated sample” value in series [5] is 104%.
Turning to `CCCCOCCCNC1=C(Cl)C(=O)c2ccccc2C1=O` [compound 26], the EC50 in series [1] is 26.6 µM; in series [4] (read-out: EC50, toxicity to hepatocytes), 3.6 µM; in series [4] (read-out: EC50, μM Hepatocytes), 4.8 µM. Further, the results for the CC50 (in series [1]; in series [2]; in “in vitro”) were 26.6 µM, 1.7 µM and 4.8 µM, respectively. Besides, the activity at 30 µM in the series with MIA PaCa-2 cells amounted to 889%. For the same molecule, in the series with hepatocytes, the “ROS increase, % Hepatocytes” value was 191%. Also, in series [3], the remaining activity at 30 µM is 66%. In addition, the “Mito Check I, enzyme residual activity as compared to DMSO-treated sample” value in series [5] stood at 112%.
Consider `CCCC(=O)NC1=C(Cl)C(=O)c2ccccc2C1=O` [compound 31], for which the EC50 in series [1] stood at 10.4 µM; in series [4] (read-out: EC50, μM Hepatocytes) it was 1.6 µM. The CC50 in series [1] was 10.4 µM; in series [2], 1 µM; in the series “in vitro”, 1.6 µM. For the same molecule, the activity at 30 µM with MIA PaCa-2 cells turned out to be 251%. The “ROS increase, % Hepatocytes” value in the series on hepatocytes is 228%. Moreover, the remaining activity at 30 µM in series [3] is 28%. Moreover, in series [5], the “stimulation of Complex I activity” value is “more than 30%”. Also, in series [5], the “Mito Check I, enzyme residual activity as compared to DMSO-treated sample” value is recorded as 159%.
Turning to `CCCCC(=O)NC1=C(Cl)C(=O)c2ccccc2C1=O` [compound 32], the EC50 turned out to be 10.2 µM in series [1] and 2.2 µM in series [4] (read-out: EC50, μM Hepatocytes). Moreover, the CC50 in series [1] was 10.2 µM; in series [2] it was 0.3 µM; in “in vitro”, 2.2 µM. The activity at 30 µM in the series with MIA PaCa-2 cells amounted to 506%. Further, the “ROS increase, % Hepatocytes” value with hepatocytes came out at 249%. Besides, in series [3], the remaining activity at 30 µM stood at 1%. Moreover, the inhibition at 30 µM in series [3] (read-out: GSR-inhibiting activity) came out at 99%. Also, the “stimulation of Complex I activity” value in series [5] was “more than 30%”. In series [5], the “Mito Check I, enzyme residual activity as compared to DMSO-treated sample” value worked out at 135%.
In the case of `O=C1C(Cl)=C(Nc2nccs2)C(=O)c2ccccc21` [compound 38], the EC50 is above 90 µM in series [1] and 26 µM in series [4] (read-out: EC50, μM Hepatocytes). Besides, the CC50 in series [2] turned out to be 20.3 µM; in “in vitro” it was 26 µM. In addition, the activity at 30 µM in the series with MIA PaCa-2 cells was 100%. Further, the “ROS increase, % Hepatocytes” value in the series on hepatocytes was found to be 100%. In addition, in series [3], the remaining activity at 30 µM came out at 90%. Moreover, in series [5], the “Mito Check I, enzyme residual activity as compared to DMSO-treated sample” value is listed as 105%.
For the molecule `Cc1ccccc1NC1=C(Cl)C(=O)c2ccccc2C1=O` [compound 40], the EC50 in series [1] is 78.5 µM; in series [4] (read-out: EC50, μM Hepatocytes), 24.5 µM. For the same molecule, the CC50 in series [1] is 78.5 µM; in series [2], 9 µM; in the series “in vitro”, 24.5 µM. For the same molecule, in the series with MIA PaCa-2 cells, the activity at 30 µM was 111%. Moreover, the “ROS increase, % Hepatocytes” value in the series with hepatocytes turned out to be 122%. In series [3], the remaining activity at 30 µM was 72%. Moreover, in series [5], the “Mito Check I, enzyme residual activity as compared to DMSO-treated sample” value amounted to 103%.
In the case of `O=C1C(Nc2ccccc2)=CC(=O)c2ncccc21` [compound 67, reference compound], the concentration for a half-maximal effect (EC50) in series [1] was determined as 1 µM; in series [4] (read-out: EC50, μM Hepatocytes) it was 17.8 µM. The CC50 in series [1] stood at 1 µM; in series [2], 3 µM; in the series “in vitro”, 17.8 µM. For the same molecule, the “increase in anti-cancer activity” value in series [1] (versus compound 64) is reported as “approximately 10 fold”. Further, in the series with MIA PaCa-2 cells, the activity at 30 µM was 783%. Further, the “ROS increase, % Hepatocytes” value in the series on hepatocytes is 179%. For the same molecule, the remaining activity at 30 µM in series [3] was 53%. In addition, the “Mito Check I, enzyme residual activity as compared to DMSO-treated sample” value in series [5] is recorded as 116%.
